Where no end group is shown, it is not given here. The star is where a group is joined. Propionyl = CCC(=O)*
What was measured:
PrP^Sc [1] = target: T1, PrP^Sc (Bos taurus, UniProt P10279); assay type: binding, cattle
PrP^Sc [2] = target: T1, PrP^Sc; assay type: binding, cattle; details: pH 3
PrP^Sc [3] = test system: PrP^Sc

Substance	PrP^Sc binding efficiency (relative) (PrP^Sc [1]) [%]	Elution efficiency (PrP^Sc [2])	Extinction at 450 nm, BSE-positive versus BSE-negative animals (PrP^Sc [3])
Arg-Val-Val-Ile-Ala [Peptide 1]	54.7		
Leu-Pro-Phe-Phe-Asp (LPFFD; beta-sheet binding peptide) [Peptide 3]	46.6		
Propionyl-DArg-DArg-DA1a-DPhe-DPhe-DVal-amide [Peptide 7]	76.5		
Propionyl-RIIGL [Peptide 5]	58.1		
Lys-Leu-Val-Phe-Phe [Peptide 2]	100.0	remained almost completely bound	significantly (t-test) raised
Gly-Val-Val-Ile-Ala [Peptide 6]	64.5		
Propionyl-IIGL [Peptide 4]	55.1		

Reference: patent publication US20060094071A1 (priority 2002, published 2006)
